Measurements published in patent US20240246946A1, “MODULATORS OF TREX1” (Constellation Pharmaceuticals, Inc., priority 2021, published 2024).

Columns and labels:
[1] = target: T1, human TREX2 (residues M44-A279) (Homo sapiens, UniProt Q9BQ50); assay: hTREX2 Biochemical Assay (fluorescence, dsDNA substrate degradation); details: biochemical selectivity for hTREX1 vs hTREX2
T1 construct: human TREX2 (residues M44-A279, expressed in E. coli); made in house; host or cells: E. coli
T1 sequence (Q9BQ50 44-279 isoform Q9BQ50-1): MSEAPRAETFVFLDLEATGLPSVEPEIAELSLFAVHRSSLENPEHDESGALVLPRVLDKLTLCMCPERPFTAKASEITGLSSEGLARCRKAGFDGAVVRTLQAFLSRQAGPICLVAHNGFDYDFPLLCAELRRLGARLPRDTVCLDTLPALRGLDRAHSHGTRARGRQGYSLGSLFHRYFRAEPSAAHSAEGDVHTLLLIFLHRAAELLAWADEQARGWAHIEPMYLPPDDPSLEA
In short: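 Fluorogenic dsDNA degradation read at 615 nm (570 nm excitation) after EDTA quench. Final 60 nM substrate, 50 pM His-Tev-tagged enzyme, 5 mM MgCl2, pH 7.4, 1.0% DMSO; 4 h compound–enzyme preincubation then 18 h reaction, both 25 °C; 10-point titration.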

full length human TREX1 = target: T2, full length human TREX1 (Homo sapiens, UniProt Q9NSU2); assay: hTREX1 Biochemical Assay (fluorescence, dsDNA substrate degradation); details: biochemical, read-out: hTREX1 IC50
T2 construct: N-terminally His-Tev tagged full length human TREX1; made in house; host or cells: E. coli
T2 sequence (Q9NSU2 1-314): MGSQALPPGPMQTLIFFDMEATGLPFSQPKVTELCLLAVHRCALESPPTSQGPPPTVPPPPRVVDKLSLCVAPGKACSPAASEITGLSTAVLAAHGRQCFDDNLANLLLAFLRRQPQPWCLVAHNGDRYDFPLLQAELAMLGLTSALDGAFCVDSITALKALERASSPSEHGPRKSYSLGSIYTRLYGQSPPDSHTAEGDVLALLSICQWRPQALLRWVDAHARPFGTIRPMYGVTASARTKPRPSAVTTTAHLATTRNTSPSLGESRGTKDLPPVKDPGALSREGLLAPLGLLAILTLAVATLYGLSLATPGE
In short: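 Fluorescence rises as enzyme degrades a quenched TEX615-labelled dsDNA substrate (60 nM) in 50 mM Tris, 150 mM NaCl, 5 mM MgCl2, pH 7.4. Full-length His-Tev-tagged human TREX1, 4 pM, sits with compound 4 hours at 25° C before substrate; reaction 18 hours, stopped with EDTA.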

hTREX1 = target: T3, hTREX1 (Homo sapiens, UniProt Q9NSU2); assay: hTREX1 HCT116 Cell Assay (HCT116 dual cells, Lucia luciferase reporter of Type I interferon induction); assay type: cell-based; details: TREX1i 4 h before pBR322/BstNI transfection, read after 48 h
T3 construct: host or cells: HCT116 dual cells
T3 sequence (Q9NSU2 1-314): T2 sequence (Q9NSU2 1-314)
Text: HCT116 dual cells (Invivogen, San Diego, CA, USA) are derived from the human HCT116 colorectal carcinoma cell line. Cells have been selected for the stable integration of SEAP and Luciferase reporter genes, which expression is under the control of 5 tandem response elements for NF-KB/AP1 and STAT1/STAT2, respectively. The cell line was used to monitor Type I interferon induction and subsequent signaling by measuring the activity of the Lucia luciferase secreted in the culture medium.
HCT116 cells were plated in 96-well plate(s) at 40,000 cells/well in 100 uL DMEM supplemented with 10% FBS and 25 mM Hepes (pH 7.2-7.5). After overnight settling, cells were treated with TREX1i for 4 h (maximum DMSO fraction was 0.1%) before 1 ug/mL pBR322/BstNI restriction digest (New England Biolabs, Ipswich, MA, USA) was transfected with Lipofectamine LTX (ThermoFisher, Grand Island, NY, USA), according to product manual recommendations. Briefly, Lipofectamine LTX (0.35 uL/well) was diluted in OptiMEM (5 uL/well). pBR322/BstNI (100 ng/well) was diluted in OptiMEM (5 uL/well) before Plus reagent (0.1 uL/100 ng DNA) was added. After 5 min incubation at room temperature, the DNA mixture was mixed dropwise with the diluted Lipofectamine LTX. After an additional 10 min incubation, the transfection mix (10 uL/well) was added to the cells. Cells were maintained at 37 C for 48 h before monitoring the Lucia Luciferase activity from the cell culture medium.

full length mouse TREX1 = target: T4, full length mouse TREX1 (Mus musculus, UniProt Q91XB0); assay: mTREX1 Biochemical Assay (fluorescence, dsDNA substrate degradation); details: biochemical, read-out: mTREX1 IC50
T4 construct: N-terminally His-Tev tagged full length mouse TREX1; made in house; host or cells: E. coli
T4 sequence (Q91XB0 1-314): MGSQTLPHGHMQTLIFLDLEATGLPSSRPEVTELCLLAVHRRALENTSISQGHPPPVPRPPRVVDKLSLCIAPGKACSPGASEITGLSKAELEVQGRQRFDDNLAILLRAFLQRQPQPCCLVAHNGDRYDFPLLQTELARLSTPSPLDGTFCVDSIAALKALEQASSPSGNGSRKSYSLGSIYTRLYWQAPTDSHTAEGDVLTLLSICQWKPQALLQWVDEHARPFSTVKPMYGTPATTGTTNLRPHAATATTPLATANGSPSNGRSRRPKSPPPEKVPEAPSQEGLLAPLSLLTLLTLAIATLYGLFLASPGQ
In short: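 Reaction run 18 h at 25° C. with 60 nM TEX615/quencher-labelled dsDNA and 6 pM mouse TREX1 in Tris buffer (pH 7.4, 5 mM MgCl2, 1.0% DMSO), enzyme having sat 4 h with compound across 10 concentrations. EDTA quench; substrate degradation measured as fluorescence increase.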

hTREX1 vs hTREX2 selectivity [1]	IC50 (full length human TREX1)	IC50 (hTREX1)	IC50 (full length mouse TREX1)	Structure (SMILES)
A (A = <25 fold selective for hTREX1)	1 to 10 nM	10 to 100 nM	1 to 10 nM	CC(c1nc(C(=O)Nc2cnoc2)c(O)c(=O)n1C)C(c1ccccc1C#N)c1ccnn1C (single isomer, unassigned) [Example 1 D1E1]
A (A = <25 fold selective for hTREX1)	> 10 nM	> 100 nM	> 10 nM	CC(c1nc(C(=O)Nc2cnoc2)c(O)c(=O)n1C)C(c1cnn(C)c1)c1ccccc1C#N (single isomer, unassigned) [Example 2 D1E2]
A (A = <25 fold selective for hTREX1)	> 10 nM	> 100 nM	> 10 nM	CC(c1nc(C(=O)Nc2cnoc2)c(O)c(=O)n1C)C(c1cnn(C)c1)c1ccccc1C#N (single isomer, unassigned) [Example 2 D2E2]
C (C = >50 fold selective for hTREX1)	< 1 nM	< 10 nM	< 1 nM	Cc1nn(C)cc1C(c1ccccc1C#N)C(C)c1nc(C(=O)Nc2cnoc2)c(O)c(=O)n1C (single isomer, unassigned) [Example 3 D1E1]
C (C = >50 fold selective for hTREX1)	< 1 nM	< 10 nM	< 1 nM	Cc1cc(C(c2ccccc2C#N)C(C)c2nc(C(=O)Nc3cnoc3)c(O)c(=O)n2C)ccn1 (single isomer, unassigned) [Example 6 D1E1]
C (C = >50 fold selective for hTREX1)	< 1 nM	10 to 100 nM	1 to 10 nM	COCCn1cc(C(c2ccccc2C#N)C(C)c2nc(C(=O)Nc3cnoc3)c(O)c(=O)n2C)cn1 (single isomer, unassigned) [Example 9 D1E1]
C (C = >50 fold selective for hTREX1)	1 to 10 nM	> 100 nM	> 10 nM	COCCn1cc(C(c2ccccc2C#N)C(C)c2nc(C(=O)Nc3cnoc3)c(O)c(=O)n2C)cn1 (single isomer, unassigned) [Example 9 D2E1]
C (C = >50 fold selective for hTREX1)	< 1 nM	< 10 nM	1 to 10 nM	CC(c1nc(C(=O)Nc2cnoc2)c(O)c(=O)n1C)C(c1ccccc1C#N)c1cn(C)nc1C#N (single isomer, unassigned) [Example 10 D2E1]
C (C = >50 fold selective for hTREX1)	< 1 nM	10 to 100 nM	1 to 10 nM	CC(c1nc(C(=O)Nc2cnoc2)c(O)c(=O)n1C)C(c1cn[nH]c1)c1ccccc1C#N (single isomer, unassigned) [Example 12 D1E1]
C (C = >50 fold selective for hTREX1)	1 to 10 nM	> 100 nM	> 10 nM	CC(c1nc(C(=O)Nc2cnoc2)c(O)c(=O)n1C)C(c1cn[nH]c1)c1ccccc1C#N (single isomer, unassigned) [Example 12 D2E1]
C (C = >50 fold selective for hTREX1)	< 1 nM	< 10 nM	1 to 10 nM	CC(c1nc(C(=O)Nc2cnoc2)c(O)c(=O)n1C)C(c1cnn(C)c1)c1ccc(F)cc1C#N (single isomer, unassigned) [Example 15 D1E1]
C (C = >50 fold selective for hTREX1)	< 1 nM	10 to 100 nM	1 to 10 nM	CC(c1nc(C(=O)Nc2cnoc2)c(O)c(=O)n1C)C(c1cnn(CCN2CCOCC2)c1)c1ccccc1C#N (single isomer, unassigned) [Example 20 D1E1]
C (C = >50 fold selective for hTREX1)	< 1 nM	10 to 100 nM	1 to 10 nM	CC(c1nc(C(=O)Nc2cnoc2)c(O)c(=O)n1C)C(c1cnn(CCN2CCN(C(=O)OC(C)(C)C)CC2)c1)c1ccccc1C#N (single isomer, unassigned) [Example 21 D1E1]
C (C = >50 fold selective for hTREX1)	< 1 nM	< 10 nM	< 1 nM	COCCCn1cc(C(c2ccccc2C#N)C(C)c2nc(C(=O)Nc3cnoc3)c(O)c(=O)n2C)cn1 (single isomer, unassigned) [Example 24 D1E1]
C (C = >50 fold selective for hTREX1)	< 1 nM	< 10 nM	1 to 10 nM	CC(c1nc(C(=O)Nc2cnoc2)c(O)c(=O)n1C)C(c1cnn(C)c1)c1cc(F)c(F)cc1C#N (single isomer, unassigned) [Example 25 D1E1]
C (C = >50 fold selective for hTREX1)	< 1 nM	< 10 nM	< 1 nM	CC(c1nc(C(=O)Nc2cnoc2)c(O)c(=O)n1C)C(c1cnn(C)c1)c1ccc(Cl)cc1C#N (single isomer, unassigned) [Example 27 D1E1]
C (C = >50 fold selective for hTREX1)	< 1 nM	< 10 nM	1 to 10 nM	CC(c1nc(C(=O)Nc2cnoc2)c(O)c(=O)n1C)C(c1cnn(C)c1)c1cc(C(F)(F)F)ccc1C#N (single isomer, unassigned) [Example 29 D1E1]

Structure (SMILES)	hTREX1 vs hTREX2 selectivity [1]	IC50 (full length human TREX1)	IC50 (hTREX1)	IC50 (full length mouse TREX1)
Cc1c(C(c2ccccc2C#N)C(C)c2nc(C(=O)Nc3cnoc3)c(O)c(=O)n2C)cnn1C (single isomer, unassigned) [Example 4 D2E2]	B (B = 25 to 50-fold selective for hTREX1)	1 to 10 nM	> 100 nM	> 10 nM
Cc1ccc(C(c2ccccc2C#N)C(C)c2nc(C(=O)Nc3cnoc3)c(O)c(=O)n2C)cn1 (single isomer, unassigned) [Example 5 D1E2]	B (B = 25 to 50-fold selective for hTREX1)	< 1 nM	< 10 nM	< 1 nM
Cc1cc(C(c2ccccc2C#N)C(C)c2nc(C(=O)Nc3cnoc3)c(O)c(=O)n2C)ccn1 (single isomer, unassigned) [Example 6 D1E2]	B (B = 25 to 50-fold selective for hTREX1)	1 to 10 nM	> 100 nM	> 10 nM
CC(c1nc(C(=O)Nc2cnoc2)c(O)c(=O)n1C)C(c1cnn(C)c1)c1ccc(C(=O)N(C)C)cc1C#N (single isomer, unassigned) [Example 11 D1E1]	B (B = 25 to 50-fold selective for hTREX1)	< 1 nM	> 100 nM	< 1 nM
CCn1cc(C(c2ccccc2C#N)C(C)c2nc(C(=O)Nc3cnoc3)c(O)c(=O)n2C)cn1 (single isomer, unassigned) [Example 13 D2E1]	B (B = 25 to 50-fold selective for hTREX1)	1 to 10 nM	> 100 nM	> 10 nM
